# Results reported in patent publication US8158621B2, “Methods of treating or preventing autoimmune diseases with 2,4-pyrimidinediamine compounds” (Rigel Pharmaceuticals, Inc., priority 2002, dated 2012).
# Legend:
# [1] = system: bone marrow derived mast cells (BMMC); test: BMMC high cell density IgE activation: histamine; format: cell-based, mouse; conditions: High Density; read-out: BMMC anti-IgE histamine
# Experimental: After sensitizing, cells are counted, pelleted (1000 rpm, 5-10 minutes), and resuspended at 1-3×10^6 cells/ml in MT buffer. Add 100 ul of cell suspension to each well and 100 ul of compound dilutions. The final vehicle concentration is 0.5% DMSO. Incubate at 37° C. (5% CO2) for 1 hour. After 1 hour of compound treatment, stimulate cells with 6× stimulus (60 ng/ml DNP-BSA). Mix wells with the cells and allow plates to incubate at 37° C. (5% CO2) for one hour. After 1 hour incubation, pellet cells (10 minutes, 1000 RPM) and collect 200 ul per well of the supernatant, being careful not to disturb pellet, and transfer to a clean tube or 96-well plate. Place the supernatant plate on ice. During the 4-5 hour step (see next) perform the hexosiminidase assay. Resuspend cell pellet in 240 ul WEI-conditioned media containing 0.5% DMSO and corresponding concentration of compound. Incubate BMMC cells for 4-5 hours at 37° C. (5% CO2). After incubation, pellet cells (1000 RPM, 10 minutes) and collect 225 ul per well and place in −80° C. until ready to perform ELISAS. ELISAS are performed on appropriately diluted samples (determined empirically for each donor cell population so that the sample measurement falls within the standard curve) following the supplier's instructions.
# [2] = 14-day repeat-dose intranasal toxicity study in New Zealand White rabbits; format: in vivo; conditions: 14-day intranasal
# Experimental: A 14-day repeat-dose intranasal toxicity study in New Zealand White rabbits was performed at doses of 1.7, 3.4 or 5.0 mg/kg/day. In life parameters included: clinical observations, body weights, food consumption, ophthalmology, hematology, clinical chemistry, gross necropsy, organ weights, toxicokinetic assessments and histopathology (including the nasal cavity).
# [3] = format: in vivo; conditions: rat, 32 days
# [4] = Mouse collagen antibody-induced arthritis (CAIA); format: in vivo, Balb/c mice
# Experimental: Arthrogen-CIA® Arthritis-inducing Monoclonal Antibody Cocktail (Chemicon International Inc.) is administered intravenously to Balb/c mice (2mg/mouse) on Day 0. Forty-eight hours later, 100 μl of LPS (25 μg) is injected intraperitoneally. On Day 4, toes may appear swollen. By Day 5, one or two paws (particular the hind legs) begin to appear red and swollen. On Day 6, and thereafter, red and swollen paws will remain for at least 1-2 weeks. During the study, the clinical signs of inflammation are scored to evaluate the intensity of edema in the paws. The severity of arthritis is recorded as the sum score of both hind paws for each animal (possible maximum score of 8). The degree of inflammation with involved paws is evaluated by measurement of diameter of the paws. Body weight changes are monitored.
# Animals are treated at the time of induction of arthritis, beginning on Day 0. Test compounds and control compounds are administered once a day (q.d.) or twice a day (b.i.d.), via per os (PO), depending on previously established PK profiles.
# At the end of the study (1-2 weeks after induction of arthritis), mice are euthanized and the paws are transected at the distal tibia using a guillotine and weighed. The mean±standard error of the mean (SEM) for each group is determined each day from individual animal clinical scores, and hind paw weights for each experimental group are calculated and recorded at study termination. Histopathological evaluation of paws are obtained.
# [5] = Oral bioavailability / pharmacokinetics in rats; conditions: rat, in vivo
# Experimental: Over 50 2,4-pyrimidinediamine compounds of the invention were tested for oral bioavailability. For the study, compounds were dissolved in various vehicles (e.g. PEG 400 solution and CMC suspension) for intravenous and oral dosing in the rats. Following administration of the drug, plasma samples were obtained and extracted. The plasma concentrations of the compounds were determined by high performance liquid chromatography/tandem mass spectrometry (LC/MS/MS) methods. Pharmacokinetic analyses were performed based on the plasma concentration data. The pharmacokinetic parameters of interest include Clearance (CL), Volume of distribution at steady-state (Vss), terminal half-life (t1/2), and oral bioavailability (% F).
# [6] = Non-GLP pilot oral toxicity studies in the mouse
# Experimental: Several non-GLP pilot toxicity studies have been conducted in rodents. […] In a 14-day oral toxicity study in the mouse was conducted with doses of 100, 300 and 1000 mg/kg.
# [7] = Mouse model of allergic asthma (ovalbumin); format: in vivo; conditions: intranasal, 10 consecutive days (Day 7 through Day 16), 20 mg/kg
# Excerpt: Mice are sensitized to ovalbumin (chicken protein) in the presence of an adjuvant (Alum) by the intraperitoneal route on day 0 and day 7. One week later, mice are challenged intranasally with ovalbumin on Days 14, 15 and 16 (more stringent model) or on Day 14 (less stringent model). This sensitization and challenge regimen leads to airway hyperresponsiveness and inflammation in the lungs, which are two dominant characteristics of human allergic asthma. In the mouse model, the in vivo airway responses are measured using a whole body plethysmograph which determines the PENH (enhanced Pause, Buxco Electronics). The PENH is a dimensionless value comprised of the peak inspiratory flow (PIF), peak expiratory flow (PEF), time of inspiration, time of expiration and relaxation time, and is considered a validated parameter of airway responsiveness. Responses to allergen challenge (OVA) are compared with animals challenged with saline only. Twenty-four hours after challenge, mice are exposed to increasing doses of methacholine (muscarinic receptor agonist) which results in smooth muscle contraction. […] In addition, a cellular infiltrate in the airway is observed in ovalbumin challenged mice when compared with the saline challenged mice. This cellular infiltrate is mainly characterized by eosinophils, but a smaller influx of neutrophils and mononuclear cells is also present. […]
# [8] = Pilot dose finding studies (oral); format: in vivo
structure (smiles),measurement,setting,value
Oc1cccc(Nc2ncc(F)c(Nc3cccc(O)c3)n2)c1 [Compound R921218],IC50,[1],203 nM
same,NOAEL (no observed adverse effect level),[2],5.0 mg/kg/day
Nc1cccc(Nc2ncc(F)c(Nc3cccc(N)c3)n2)c1 [Compound R921302],"tolerability, oral doses of 50, 150 and 300 mg/kg",[3],well tolerated
same,"Group Average Histopathological Score (0-15), average total score ± SD","[4]; 100 mg/kg, twice daily",5.1 ± 1.9
same,reduction of paw weight compared with vehicle control group,[4]; end of study,99.9%
same,histopathological evaluation of the resected paws,"[4]; mouse, in vivo",lesions of lesser severity
same,metabolic stability in pharmacokinetics study,[5],most metabolically stable compound
same,NOAEL (no observed adverse effect level),[6]; 14-day oral toxicity study,100 mg/kg
same,"tolerability, 100 mg/kg q.d. or b.i.d.","[6]; in vivo, po, 100 mg/kg",well tolerated
same,findings at 300 mg/kg,"[6]; in vivo, po, 300 mg/kg",histopathological changes in the vulva
same,"tolerability, 300 mg/kg q.d. or b.i.d.","[6]; in vivo, po, 300 mg/kg",not tolerated
same,"tolerability, 1000 mg/kg","[6]; in vivo, po, 1000 mg/kg",not tolerated
same,"tolerability, oral 1000 mg/kg","[6]; in vivo, po, 1000 mg/kg",tolerated
CNC(=O)COc1cccc(Nc2ncc(F)c(Nc3ccc4c(n3)NC(=O)CO4)n2)c1 [Compound R921304],ovalbumin-induced airway hyperresponsiveness to methacholine,[7],able to inhibit
CNC(=O)COc1cccc(Nc2ncc(F)c(Nc3ccc4c(c3)NCCO4)n2)c1 [Compound R921219],doses not tolerated,[8]; multiple (7-day) doses,≥ 200 mg/kg/day
same,NOEL (no observed effect level),[8]; single oral dose,600 mg/kg
